≈ marks a conversion by molar mass, not a printed value. Read-outs that look alike come from different tables or passages of the source.
Columns and labels:
Test in all cases: in vitro antibacterial activity, agar plate dilution method
Type in all cases: cell-based
[1] = tested on: S. aureus 209P NIHJ-JC1
Procedure: (§1) Now, the in vitro antibacterial activities of the compounds of the present invention against various microorganisms, were measured by the following agar plate dilution method.
(§2) One platinum loopfull of each test microorganism incubated overnight in Mueller Hinton broth, was inoculated to Mueller Hinton agar (MH agaer). Such culture media containing various antibiotics in various concentrations were prepared. After incubation at 37° C. for 16 hours, the minimum inhibitory concentrations (MIC μg/ml) were measured.

[2] = tested on: S. marcescens IAM 1184
Procedure: as §1, §2

[3] = tested on: Ps. aeruginosa AK 109
Procedure: as §1, §2

[4] = tested on: A. calcoaceticus No. 4
Procedure: as §1, §2

[5] = tested on: Ps. aeruginosa IFO3445
Procedure: as §1, §2

[6] = tested on: M. morganii GN5407*
Procedure: as §1, §2

[7] = tested on: K. pneumoniae PC1-602; settings: 10^6 CFU/ml, Mueller Hinton agar, 37° C., 16 hours
Procedure: as §1, §2

[8] = tested on: K. oxytoca GN10650*
Procedure: as §1, §2

[9] = tested on: E. cloacae 963
Procedure: as §1, §2

[10] = tested on: E. coli CSH2(RK1)*; settings: Escherichia coli, 16 h
Procedure: as §1, §2

[11] = tested on: E. coli GN5482*
Procedure: as §1, §2

[12] = tested on: S. marcescens No. 16-2*
Procedure: as §1, §2

[13] = tested on: Ps. cepacia 23; settings: 10^6 CFU/ml, Mueller Hinton agar, 37° C., 16 hours
Procedure: as §1, §2

[14] = tested on: K. pneumoniae No. 42*
Procedure: as §1, §2

[15] = tested on: E. coli NIHJ JC2; settings: 10^6 CFU/ml, Mueller Hinton agar, 37° C., 16 hours
Procedure: as §1, §2

[16] = tested on: E. coli CSH(RE45)*; settings: 10^6 CFU/ml, β-Lactamase-producing strain, 37° C., 16 hours
Procedure: as §1, §2

[17] = tested on: E. cloacae Nek 39*
Procedure: as §1, §2

[18] = tested on: P. vulgaris HX-19
Procedure: as §1, §2

[19] = tested on: P. vulgaris No. 33*
Procedure: as §1, §2

[20] = tested on: Ps. aeruginosa AKR17
Procedure: as §1, §2

[21] = Staphylococcus aureus, 10^6 CFU/ml, Mueller Hinton agar, 37° C., 16 hours, read-out: MIC
[22] = Pseudomonas aeruginosa, AK109, 16 h
[23] = Pseudomonas aeruginosa, IFO3445, 16 h
[24] = Morganella morganii, GN5407, 16 h
[25] = Klebsiella pneumoniae, PC1602, read-out: MIC
[26] = Klebsiella oxytoca, GN10650, 16 h
[27] = Enterobacter cloacae, 963, 16 h
[28] = Burkholderia cepacia, 23, read-out: MIC
[29] = Escherichia coli, NIHJJC2, read-out: MIC
[30] = Escherichia coli, read-out: MIC
[31] = Proteus vulgaris, HX19, 10^6 CFU/ml, Mueller Hinton agar, 37° C., 16 hours, read-out: MIC
[32] = Serratia marcescens, IAM1184, 10^6 CFU/ml, Mueller Hinton agar, 37° C., 16 hours, read-out: MIC
[33] = Pseudomonas aeruginosa, AK109, 10^6 CFU/ml, Mueller Hinton agar, 37° C., 16 hours, read-out: MIC
[34] = Acinetobacter calcoaceticus, NO.4, 10^6 CFU/ml, Mueller Hinton agar, 37° C., 16 hours, read-out: MIC
[35] = Pseudomonas aeruginosa, AKR17, 10^6 CFU/ml, Mueller Hinton agar, 37° C., 16 hours, read-out: MIC
[36] = 10^6 CFU/ml, Mueller Hinton agar, 37° C., 16 hours
[37] = 10^6 CFU/ml, β-Lactamase-producing strain, 37° C., 16 hours
[38] = Proteus vulgaris, 10^6 CFU/ml, β-Lactamase-producing strain, 37° C., 16 hours, read-out: MIC

Compound	MIC [5, 23]	MIC [6, 24]	MIC [7, 25]	MIC [8, 26]	MIC [9, 27]	MIC [10]	MIC ([11]; Escherichia coli, GN5482, 16 h)	MIC ([12]; Serratia marcescens, 16 h)	MIC [13, 28]	MIC ([14]; Klebsiella pneumoniae, 16 h)	MIC [15, 29]	MIC [16, 30]	MIC ([17]; Enterobacter cloacae, 16 h)	MIC [18, 31]	MIC ([19]; Proteus vulgaris, 16 h)	MIC ([1]; Staphylococcus aureus, 16 h)	MIC [2, 32]	MIC [3, 33]	MIC [4, 34]	MIC [20, 35]	also measured
C=C(O/N=C(\C(=O)N[C@@H]1C(=O)N2C(C(=O)O)=C(CSc3nc(-c4ccc(OC(C)=O)c(OC(C)=O)c4)c(CC(=O)O)s3)CS[C@H]12)c1csc(N)n1)C(=O)O [Example 16, trisodium 3-[4-(3,4-diacetoxyphenyl)-5-carboxylatomethylthiazol-2-yl]thiomethyl-7β-[2-(2-aminothiazol-4-yl)-2-(1-carboxylato-1-vinyloxyimino)acetamido]-3-cephem-4-carboxylate (syn-isomer)]	0.78 µg/mL	0.05 µg/mL	< 0.006 µg/mL	0.1 µg/mL	0.39 µg/mL	0.05 µg/mL	0.78 µg/mL	0.78 µg/mL	< 0.006 µg/mL	0.1 µg/mL	0.78 µg/mL	1.56 µg/mL	0.2 µg/mL	< 0.006 µg/mL	0.025 µg/mL						MIC [1, 21]: 12.5 µg/mL; MIC ([2]; Serratia marcescens, IAM1184, 16 h): 0.05 µg/mL; MIC [3, 22]: 0.78 µg/mL; MIC ([4]; Acinetobacter calcoaceticus, NO.4, 16 h): 0.2 µg/mL; MIC ([20]; Pseudomonas aeruginosa, AKR17, 16 h): 1.56 µg/mL
C=C(O/N=C(\C(=O)N[C@@H]1C(=O)N2C(C(=O)[O-])=C(C[n+]3cccc(NC=O)c3)CS[C@H]12)c1csc(N)n1)C(=O)O [Example 10, sodium 7β-[2-(2-aminothiazol-4-yl)-2-(1-carboxylato-1-vinyloxyimino)acetamido]-3-(3-formylamino-1-pyridinio)methyl-3-cephem-4-carboxylate (syn-isomer)]	0.78 µg/mL	0.0125 µg/mL	< 0.006 µg/mL	0.05 µg/mL	0.025 µg/mL	0.0125 µg/mL	0.1 µg/mL	1.56 µg/mL	3.12 µg/mL	0.05 µg/mL	0.0125 µg/mL	0.0125 µg/mL	0.39 µg/mL	< 0.006 µg/mL	0.0125 µg/mL	1.56 µg/mL	< 0.006 µg/mL	3.12 µg/mL	3.12 µg/mL	> 100 µg/mL	
C=C(ON=C(C(=O)N[C@@H]1C(=O)N2C(C(=O)[O-])=C(C[n+]3ccccc3)CS[C@H]12)c1csc(N)n1)C(=O)O (single isomer, unassigned) [Example 1, 7β-[2-(2-aminothiazol-4-yl)-2-(1-carboxy-1-vinyloxyimino)acetamido]-3-(1-pyridinio)methyl-3-cephem-4-carboxylate (syn-isomer)]																					MIC [1, 36]: 3.12 µg/mL (≈ 5.88 µM); MIC [2, 36]: < 0.006 µg/mL; MIC [3, 36]: 1.56 µg/mL (≈ 2.94 µM); MIC [4, 36]: 12.5 µg/mL (≈ 23.6 µM); MIC [5, 36]: 0.78 µg/mL (≈ 1.47 µM); MIC [6, 37]: 0.0125 µg/mL (≈ 0.0236 µM); MIC [7]: < 0.006 µg/mL; MIC [8, 37]: 0.1 µg/mL (≈ 0.188 µM); MIC [9, 36]: 0.025 µg/mL (≈ 0.0471 µM); MIC [11, 37]: 0.2 µg/mL (≈ 0.377 µM); MIC [12, 37]: 0.78 µg/mL (≈ 1.47 µM); MIC [13]: 3.12 µg/mL (≈ 5.88 µM); MIC [14, 37]: 0.1 µg/mL (≈ 0.188 µM); MIC [15]: 0.025 µg/mL (≈ 0.0471 µM); MIC [16]: 0.025 µg/mL (≈ 0.0471 µM); MIC [17, 37]: 0.39 µg/mL (≈ 0.735 µM); MIC [18, 36]: 0.0125 µg/mL (≈ 0.0236 µM); MIC [19, 37]: 0.0125 µg/mL (≈ 0.0236 µM); MIC [20, 36]: > 100 µg/mL
C=C(O/N=C(\C(=O)N[C@@H]1C(=O)N2C(C(=O)[O-])=C(C[n+]3cccc(N)c3)CS[C@H]12)c1csc(N)n1)C(=O)O [Example 9, sodium 7β-[2-(2-aminothiazol-4-yl)-2-(1-carboxylato-1-vinyloxyimino)acetamido]-3-(3-amino-1-5 pyridinio)methyl 3-cephem-4-carboxylate (syn-isomer)]	0.78 µg/mL	0.39 µg/mL	< 0.006 µg/mL	0.1 µg/mL	0.05 µg/mL	0.025 µg/mL	0.2 µg/mL	1.56 µg/mL	3.12 µg/mL	0.1 µg/mL	0.025 µg/mL	0.0125 µg/mL	0.78 µg/mL		0.0125 µg/mL		< 0.006 µg/mL	3.12 µg/mL	3.12 µg/mL	> 100 µg/mL	MIC [1, 21]: 3.12 µg/mL; MIC ([18]; Proteus vulgaris, HX19, 16 h): 0.0125 µg/mL
C=C(O/N=C(\C(=O)N[C@@H]1C(=O)N2C(C(=O)O)=C(CSc3nnnn3C)CS[C@H]12)c1csc(N)n1)C(=O)O [Example 19, disodium 7β-[2-(2-aminothiazol-4-yl)-2-(1-carboxylato-1-vinyloxyimino)acetamido]-3-(1-methyl-1H-tetrazol-5-yl)thiomethyl-3-cephem-4-carboxylate (syn-isomer)]	6.25 µg/mL	0.025 µg/mL	0.0125 µg/mL	0.05 µg/mL	0.1 µg/mL	0.025 µg/mL	0.39 µg/mL	1.56 µg/mL	3.12 µg/mL	0.2 µg/mL	0.05 µg/mL	0.1 µg/mL	0.78 µg/mL	< 0.006 µg/mL		6.25 µg/mL	< 0.006 µg/mL		100 µg/mL	> 100 µg/mL	MIC [3, 22]: 6.25 µg/mL; MIC [19, 38]: < 0.006 µg/mL
C=C(O/N=C(\C(=O)N[C@@H]1C(=O)N2C(C(=O)[O-])=C(C[n+]3cccc(C(N)=O)c3)CS[C@H]12)c1csc(N)n1)C(=O)O [Example 4, 7β-[2-(2-aminothiazol-4-yl)-2-(1-carboxy-1-vinyloxyimino)acetamido] vinyloxyimino)acetamido]-3-(3-carbamoyl-1-pyridinio)methyl-3-cephem-4-carboxylate (syn-isomer)]	1.56 µg/mL (≈ 2.72 µM)		0.0125 µg/mL (≈ 0.0218 µM)	0.1 µg/mL (≈ 0.174 µM)	0.05 µg/mL (≈ 0.0872 µM)	0.025 µg/mL (≈ 0.0436 µM)	0.2 µg/mL (≈ 0.349 µM)	0.78 µg/mL (≈ 1.36 µM)	3.12 µg/mL (≈ 5.44 µM)	0.1 µg/mL (≈ 0.174 µM)	0.05 µg/mL (≈ 0.0872 µM)	0.025 µg/mL (≈ 0.0436 µM)	0.2 µg/mL (≈ 0.349 µM)	0.0125 µg/mL (≈ 0.0218 µM)		1.56 µg/mL (≈ 2.72 µM)	0.0125 µg/mL (≈ 0.0218 µM)	12.5 µg/mL (≈ 21.8 µM)	3.12 µg/mL (≈ 5.44 µM)	> 100 µg/mL	MIC ([6]; Morganella morganii, GN5407, 10^6 CFU/ml, β-Lactamase-producing strain, 37° C., 16 hours, read-out: MIC): 0.0125 µg/mL (≈ 0.0218 µM); MIC [19, 38]: 0.0125 µg/mL (≈ 0.0218 µM)
C=C(O/N=C(\C(=O)N[C@@H]1C(=O)N2C(C(=O)[O-])=C(C[n+]3ccc(C(N)=O)cc3)CS[C@H]12)c1csc(N)n1)C(=O)O [Example 6, 7β-[2-(2-aminothiazol-4-yl)-2-(1-carboxy-1-vinyloxyimino)acetamido]-3-(4-carbamoyl-1-pyridinio)methyl-3-cephem-4-carboxylate (syn-isomer)]	6.25 µg/mL (≈ 10.9 µM)	0.025 µg/mL (≈ 0.0436 µM)	< 0.006 µg/mL	0.2 µg/mL (≈ 0.349 µM)	0.05 µg/mL (≈ 0.0872 µM)	0.025 µg/mL (≈ 0.0436 µM)	0.39 µg/mL (≈ 0.68 µM)		3.12 µg/mL (≈ 5.44 µM)	0.1 µg/mL (≈ 0.174 µM)	0.05 µg/mL (≈ 0.0872 µM)	0.025 µg/mL (≈ 0.0436 µM)	1.56 µg/mL (≈ 2.72 µM)	0.0125 µg/mL (≈ 0.0218 µM)		1.56 µg/mL (≈ 2.72 µM)	< 0.006 µg/mL	12.5 µg/mL (≈ 21.8 µM)	12.5 µg/mL (≈ 21.8 µM)	> 100 µg/mL	MIC ([12]; Serratia marcescens, 10^6 CFU/ml, β-Lactamase-producing strain, 37° C., 16 hours, read-out: MIC): 3.12 µg/mL (≈ 5.44 µM); MIC [19, 38]: 0.0125 µg/mL (≈ 0.0218 µM)
